# Test results published in patent publication US11576873B2, “Compositions for the treatment of drug-resistant tumors and methods of use thereof” (THE CURATORS OF THE UNIVERSITY OF MISSOURI, priority 2017, dated 2023).
# Columns and labels:
# Assay in all cases: 72 h toxicity of erlotinib, cell viability / IC50 analysis
# Assay type in all cases: cell-based
# A549 = test system: A549
# Protocol: (§1) FIG. 42A,B. FIG. 42A and 42B show 72 h toxicity of erlotinib in various NSCLC cells lines: (A) Cell viability plot and (B) IC50 analysis. Results were averaged from 3 independent experiments.
# (§2) (A, C, E) Represent the cell viability plot and (B, D, F) represent the associated IC50 analysis.
# (§3) The IC50 of erlotinib was investigated in multiple cell lines based on their AXL and FN14 expressions and EGFR/KRAS mutant status (FIG. 42). […] The independent and combined effects of AXL and FN14 siRNAs were also examined. siRNA and siRNA based constructs for treatment and studied variation in IC50 of erlotinib in multiples drug resistant cell lines were used.
# Rho, et al., Cancer Res 2014; 74: 253-262. […] Srikar, et al., Sci Rep 2016; 6: 30245.
# H1975 = settings: Homo sapiens, NCI-H1975; T790M mutant H1975, 72 h
# Protocol: as §1, §3
# HCC827 = HCC827 carrying E746-A750 deletion
# Protocol: as §1, §3
# H820 cells = settings: Homo sapiens, NCI-H820, H820 (del E746-E749 and T790M)
# Protocol: as §1, §2, §3
structure (smiles),measurement,setting,value
C#Cc1cccc(Nc2ncnc3cc(OCCOC)c(OCCOC)cc23)c1 [erlotinib],resensitization towards the drug,"A549; A549, downregulating all three pathways (AXL, FN14, KRAS)",total resensitization
same,IC50,"A549; Homo sapiens, A549, 72 h, read-out: IC50 of erlotinib",> 10 µM
same,IC50,H1975,> 10 µM
same,sensitivity to erlotinib,HCC827,highly sensitive
same,IC50,H820 cells,> 10 µM
